Measured values as given in patent publication US7618957B2, “Perfluoroalkyl-containing complexes, process for their production as well as their use” (Bayer Schering Pharma Aktiengesellschaft, priority 2005, dated 2009).

How the values were obtained:
[1] = Relaxivity (T1 and T2 relaxation times) in water, NMR pulse spectrometer Minispec PC 20; type: physicochemical; details: 40° C., 0.47 T
Protocol: (§1) The T1 and T2 relaxation times of water and plasma (bovine) with increasing concentrations of the gadolinium complexes of the title substances of Examples 1d, 5c, 14c, 15c contained therein were determined at 40° C. with use of an NMR pulse spectrometer (Minispec PC 20) at 0.47 T. The results are set forth in Table 1.

[2] = Relaxivity (T1 and T2 relaxation times) in plasma (bovine), NMR pulse spectrometer Minispec PC 20; type: physicochemical; details: 40° C., 0.47 T
Protocol: as §1

mice = assay: Acute toxicity after one-time intravenous administration in mice (preliminary); type: in vivo; details: one-time i.v., observation period of 7 days
Protocol: After intravenous administration of the gadolinium complexes of the title substances of Examples 1d, 5c, 14c, 15c in mice (n=3; rate of injection: 2 ml/min), the acute systemic compatibility (LD50) was determined preliminarily. In each case, several dosages with an observation period of 7 days were examined. The acute toxicities that are to be expected can be seen in Table 1.

[3] = Excretion after intravenous administration in rats (ICP-AES); type: in vivo; details: 50 μmol of total gadolinium/kg i.v., 14 days after administration
Protocol: After intravenous administration of 50 μmol of total gadolinium/kg of body weight of the gadolinium complexes of the title substances of Examples 1d, 5c, 14c, 15c in rats (n=3), the metal content was determined in fractions up to 14 days after administration by means of atom emission spectrometry (ICP-AES) in the excretion media of urine and feces, as well as in the body (the rest of the body).

[4] = Plasma kinetics after intravenous administration in rats (ICP-AES); type: in vivo; details: 50 μmol of total gadolinium/kg i.v.; for Elimination Half-Life of Blood: calculated with WinNonlin from plasma concentrations
Protocol: After intravenous administration of 50 μmol of total gadolinium/kg of body weight of the gadolinium complexes of the title substances of Examples 1d, 5c, 14c, 15c in rats (n=3), blood samples were taken via a catheter in the common carotid artery at different points in time ([…].), the metal content was determined by means of atom emission spectrometry (ICP-AES) and converted to plasma values via a conversion factor (0.625). The elimination half-life was calculated by means of special software (WinNonlin) from the plasma concentrations.

[5] = tested on: VX2-tumor-carrying rabbits; assay: MRT visualization of lymph node metastases and primary tumors in VX2-tumor-carrying rabbits; type: in vivo; details: rabbits with i.m. implanted VX2 tumors, 50 μmol of Gd/kg i.v.
Protocol: The pictures of FIGS. 1 and 2 show MR images of iliac lymph nodes precontrast as well as up to 24 hours after intravenous administration of 50 μmol of Gd/kg of body weight of the title substance of Example 1d) in rabbits with i.m. implanted VX2 tumors. […] Zones where there was no signal rise within the lymph node were diagnosed as metastases and confirmed histologically (H/E staining of the lymph node sections) (FIG. 1).
At later times (24 hours p.i.), this enhancement also propagates toward the center of the tumor.

[6] = tested on: arteriosclerotic plaque of WHHL rabbits; assay: MRT visualization of arteriosclerotic plaque after intravenous administration; type: in vivo, Watanabe rabbits; details: 50 μmol of Gd/kg i.v., 6 or 24 hours after administration
Protocol: The pictures of FIG. 3 show MR images of the aorta 6 or 24 hours after intravenous administration of 50 μmol of Gd/kg of body weight of the title substances from Example 1d) and Example 14c in Watanabe rabbits (WHHL rabbits; genetically-induced arteriosclerosis) and in control animals without arteriosclerosis (white New Zealanders). […] The localization of the plaque, especially in the aortic arch as well as in the vascular passages, was confirmed by means of Sudan-3 staining. With this test, the suitability of the compounds according to the invention as markers for arteriosclerotic plaque could be shown.

popliteal lymph nodes = assay: MRT visualization of lymph nodes after intravenous administration in rats; type: in vivo; details: 50 μmol of Gd/kg i.v., up to 60 minutes p.i.
From the text: By way of example, the pictures show MR images of popliteal lymph nodes at different points in time after intravenous administration of 50 μmol of Gd/kg of body weight of the title substance from Example 5c), title substance from Example 14c) and title substance from Example 15c) in rats.

[7] = tested on: inflammatory muscle lesions and necrotic areas; assay: MRT visualization of inflammatory lesions and necrotic areas in rats; type: in vivo; details: Rose Bengal/xenon lamp induced lesion, 50 μmol of Gd/kg i.v.
Protocol: By way of example, the pictures of FIG. 4 show MR images of inflammatory muscle lesions as well as necrotic areas at different points in time after intravenous administration of 50 μmol of Gd/kg of body weight of the title substance of Example 14c in rats. The inflammation/necrosis was induced by intravenous administration of Rose Bengal (20 mg/kg; 24 hours before the administration of contrast medium) and subsequent 20-minute irradiation with a xenon lamp.

SMILES	Relaxivity R1(w) = R1-relaxivity in water [1]	Relaxivity R1(p) = R1-relaxivity in plasma [2]	LD50 Mouse (mice) [mmol/kg]	Body Retention 14 days [3] [%]	Gd Content of Blood 24 Hours p.i. [4] [%]	Elimination Half-Life of Blood [4]	signal rise in healthy lymph node tissue (iliac lymph nodes), T1-weighted turbo-spin-echo MR images ([5]; 15 to 60 minutes p.i.)	enhancement in the primary tumor, MR images ([5]; immediately after administration)	signal rise in the arteriosclerotic plaque, T1-weighted inversion-recovery MR images of the aorta [6]	signal rise in the functional lymph node tissue (popliteal lymph nodes), T1-weighted turbo-spin-echo MR images (popliteal lymph nodes)	signal rise in the central necrosis, T1-weighted turbo-spin-echo MR images ([7]; 24 hours p.i.)	signal rise in the inflammatorily altered tissue, T1-weighted turbo-spin-echo MR images ([7]; up to 60 minutes p.i.)
CC(C(=O)NCC(=O)NCCN(CCC(F)(F)C(F)(F)C(F)(F)C(F)(F)C(F)(F)C(F)(F)C(F)(F)C(F)(F)F)C(=O)CO[C@H]1O[C@H](CO)[C@@H](O)[C@H](O)[C@@H]1O)N1CCN(CC(=O)[O-])CCN(CC(=O)[O-])CCN(CC(=O)[O-])CC1.[Gd+3] (stereo partly drawn) [Example 1, N-{[1,4,7-Tris-(carboxylatomethyl)-1,4,7,10-tetracyclododecane-10-N-(pentanoyl-3-aza-4-oxo-5-methyl-5-yl)]-2-aminoethyl}-N-(1H,1H,2H,2H-perfluorodecyl)-2-(1-O-α-d-mannopyranosyl)-acetamide, Gd Complex]	R1(w): 22.7 1/(mmol * s)	R1(p): 25.8 1/(mmol * s)	>10	0.0	0.7	4.8 h	strong signal rise	clear enhancement	strong signal rise			
COCCOCCOCC(=O)N(CCNC(=O)CNC(=O)C(C)N1CCN(CC(=O)[O-])CCN(CC(=O)[O-])CCN(CC(=O)[O-])CC1)CCC(F)(F)C(F)(F)C(F)(F)C(F)(F)C(F)(F)C(F)(F)C(F)(F)C(F)(F)F.[Gd+3] (centres unmarked) [Example 5, N-{[1,4,7-Tris-(carboxylatomethyl)-1,4,7,10-tetraazacyclododecane-10-N-(pentanoyl-3-aza-4-oxo-5-methyl-5-yl)]-2-aminoethyl}-N-(1H,1H,2H,2H-perfluorodecyl)-2-[2-(2-methoxyethoxy)-ethoxy]-acetamide, Gd Complex]	R1(w): 18.9 1/(mmol * s)	R1(p): 24.8 1/(mmol * s)		0.0	0.0	0.8 hour hours				strong signal rise		
COCCOCCOCCOCC(=O)N(CCNC(=O)CNC(=O)C(C)N1CCN(CC(=O)[O-])CCN(CC(=O)[O-])CCN(CC(=O)[O-])CC1)CCC(F)(F)C(F)(F)C(F)(F)C(F)(F)C(F)(F)C(F)(F)C(F)(F)C(F)(F)F.[Gd+3] (centres unmarked) [Example 14, N-{[1,4,7-Tris-(carboxylatomethyl)-1,4,7,10-tetraazacyclododecane-10-N-(pentanoyl-3-aza-4-oxo-5-methyl-5-yl)]-2-aminoethyl}-N-(1H,1H,2H,2H-perfluorodecyl)-2-{-2-[2-(2-methoxyethoxy)-ethoxy]-ethoxy}-acetamide, Gd Complex]	R1(w): 18.6 1/(mmol * s)	R1(p): 25.5 1/(mmol * s)	7.5	0.0	0.0	1.1 h			strong signal rise	strong signal rise	delayed signal rise	strong signal rise
COCCOCC(=O)N(CCNC(=O)CNC(=O)C(C)N1CCN(CC(=O)[O-])CCN(CC(=O)[O-])CCN(CC(=O)[O-])CC1)CCC(F)(F)C(F)(F)C(F)(F)C(F)(F)C(F)(F)C(F)(F)C(F)(F)C(F)(F)F.[Gd+3] (centres unmarked) [Example 15, N-{[1,4,7-Tris-(carboxylatomethyl)-1,4,7,10-tetraazacyclododecane-10-N-(pentanoyl-3-aza-4-oxo-5-methyl-5-yl)]-2-aminoethyl}-N-(1H,1H,2H,2H-perfluorodecyl)-2-(2-methoxyethoxy)-acetamide, Gd Complex]	R1(w): 17.2 1/(mmol * s)	R1(p): 24.6 1/(mmol * s)	>10	0.0	0.2	4.8 h				strong signal rise		
